Test results from publication PMC12669672, “Structural insights into selective and dual antagonism of EP2 and EP4 prostaglandin receptors” (The EMBO Journal, 2025).
Several values for one entry are separate records, joined by “and”; a condition that tells them apart may be missing. Equal entries are not always repeated. Where two headings read alike, the source gives them in different places.

How the values were obtained:
Format in all cases: cell-based
[1] = molecular target: T1, constitutively active EP2 T82A (Homo sapiens, UniProt P43116, T82A); assay: GloSensor cAMP assay, inhibition of constitutive activity
T1 construct: The full-length EP2 or EP4 was cloned into the pcDNA3.1 vector; FLAG (N); expressed in transfected cells; host or cells: AD293 cells
T1 sequence (P43116 whole entry T82A): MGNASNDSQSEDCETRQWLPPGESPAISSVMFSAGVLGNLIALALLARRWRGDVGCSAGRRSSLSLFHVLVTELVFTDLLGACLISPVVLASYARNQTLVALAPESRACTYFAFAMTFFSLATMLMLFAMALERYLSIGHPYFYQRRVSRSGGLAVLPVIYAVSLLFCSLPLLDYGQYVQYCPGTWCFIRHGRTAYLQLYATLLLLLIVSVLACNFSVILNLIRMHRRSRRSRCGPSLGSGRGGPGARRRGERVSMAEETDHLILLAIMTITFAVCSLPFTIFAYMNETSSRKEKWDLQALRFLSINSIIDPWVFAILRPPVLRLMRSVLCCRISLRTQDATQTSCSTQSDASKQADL
Summary of the method: (§1)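 Read-out is GloSensor luminescence from AD293 cells co-expressing FLAG-tagged EP2 variant and GloSensor22F biosensor, transfected at a 1:1 plasmid ratio. Cells were plated at 4000 per well in CO2-independent medium containing 2% cAMP reagent, incubated 1 h at 37 °C, then read.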

[2] = molecular target: T2, constitutively active EP2 M116A (Homo sapiens, UniProt P43116, M116A); assay: as above
T2 construct: The full-length EP2 or EP4 was cloned into the pcDNA3.1 vector; FLAG (N); expressed in transfected cells; host or cells: AD293 cells
T2 sequence (P43116 whole entry M116A): as the sequence (P43116 whole entry T82A) above, with A82T, M116A counted along it
Summary of the method: as §1

EP2-M116L = molecular target: T3, EP2-M116L (Homo sapiens, UniProt P43116, M116L); assay: GloSensor cAMP assay, antagonism of PGE2-induced cAMP, chimeric studies; conditions: single experiments 1st-3rd
T3 construct: The full-length EP2 or EP4 was cloned into the pcDNA3.1 vector; FLAG (N); expressed in transfected cells; host or cells: AD293 cells
T3 sequence (P43116 whole entry M116L): as the sequence (P43116 whole entry T82A) above, with A82T, M116L counted along it
Description: (§2) The full-length EP2 or EP4 was cloned into the pcDNA3.1 vector (Invitrogen), incorporating an N-terminal FLAG tag. AD293 cells were seeded in six-well plates containing DMEM supplemented with 10% dialyzed FBS 1 day prior to transfection. Following overnight growth, cells were transfected with a 1:1 ratio of receptor construct and GloSensor22F cAMP biosensor (Promega) plasmids.
(§3) Twenty-four hours post-transfection, the cells were transferred to CO2-independent media containing 2% GloSensor cAMP Reagent (Promega) and distributed into 384-well assay plates at a density of 4000 cells per well in 10 μL. […] The plates were then incubated at 37 °C for an additional hour before luminescence measurements were taken using an EnVision plate reader.
(§4) Data analysis was performed using GraphPad Prism software v8.0.1. A nonlinear regression analysis, employing a sigmoidal dose–response model, was conducted to determine the Emax values and half-maximum inhibitory concentrations (IC50) for each compound tested.

EP2-L301I = molecular target: T4, EP2-L301I (Homo sapiens, UniProt P43116, L301I); assay: as above; conditions: single experiments 1st-3rd
T4 construct: The full-length EP2 or EP4 was cloned into the pcDNA3.1 vector; FLAG (N); expressed in transfected cells; host or cells: AD293 cells
T4 sequence (P43116 whole entry L301I): as the sequence (P43116 whole entry T82A) above, with A82T, L301I counted along it
Description: as §2, §3, §4

EP2-I85V = molecular target: T5, EP2-I85V (Homo sapiens, UniProt P43116, I85V); assay: as above; conditions: single experiments 1st-3rd
T5 construct: The full-length EP2 or EP4 was cloned into the pcDNA3.1 vector; FLAG (N); expressed in transfected cells; host or cells: AD293 cells
T5 sequence (P43116 whole entry I85V): as the sequence (P43116 whole entry T82A) above, with A82T, I85V counted along it
Description: as §2, §3, §4

EP4 V320A = molecular target: T6, EP4 V320A (Homo sapiens, UniProt P35408, V320A); assay: GloSensor cAMP assay, antagonism of PGE2-induced cAMP; conditions: for cAMP activity (∆pIC50 from EP4 WT): TG6-129, V320A
T6 construct: The full-length EP2 or EP4 was cloned into the pcDNA3.1 vector (Invitrogen), incorporating an N-terminal FLAG tag; expressed in transfected cells; host or cells: AD293
T6 sequence (P35408 whole entry V320A): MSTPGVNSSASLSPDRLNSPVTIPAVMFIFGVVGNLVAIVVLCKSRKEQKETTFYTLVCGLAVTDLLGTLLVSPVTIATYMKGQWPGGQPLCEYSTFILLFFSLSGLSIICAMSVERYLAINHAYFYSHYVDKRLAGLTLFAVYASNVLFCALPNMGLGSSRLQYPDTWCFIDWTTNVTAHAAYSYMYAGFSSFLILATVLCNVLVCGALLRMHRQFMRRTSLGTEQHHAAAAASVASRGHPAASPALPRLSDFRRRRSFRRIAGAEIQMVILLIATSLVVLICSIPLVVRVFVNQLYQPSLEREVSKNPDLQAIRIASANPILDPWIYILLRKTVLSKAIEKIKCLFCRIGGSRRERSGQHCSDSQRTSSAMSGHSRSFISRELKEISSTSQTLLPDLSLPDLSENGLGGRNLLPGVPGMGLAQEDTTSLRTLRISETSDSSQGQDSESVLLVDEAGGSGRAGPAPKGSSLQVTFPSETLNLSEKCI

EP2 T82A = molecular target: T7, EP2 T82A (Homo sapiens, UniProt P43116, T82A); assay: as above; conditions: for cAMP activity (∆pIC50 from EP2 WT): TG6-129, T82A
T7 construct: The full-length EP2 or EP4 was cloned into the pcDNA3.1 vector; FLAG (N); expressed in transfected cells; host or cells: AD293 cells
T7 sequence (P43116 whole entry T82A): as the sequence (P43116 whole entry T82A) above
Summary of the method: as §1

EP2 S86A = molecular target: T8, EP2 S86A (Homo sapiens, UniProt P43116, S86A); assay: as above
T8 construct: The full-length EP2 or EP4 was cloned into the pcDNA3.1 vector; FLAG (N); expressed in transfected cells; host or cells: AD293 cells
T8 sequence (P43116 whole entry S86A): as the sequence (P43116 whole entry T82A) above, with A82T, S86A counted along it
Summary of the method: as §1

[3] = 1 h, ligand log([M]) -5, Fig. S7B, read-out: % cAMP activity (normalized to WT)
[4] = 1 h, ligand log([M]) -10, Fig. S7B, read-out: % cAMP activity (normalized to WT)
[5] = 1 h, ligand log([M]) -11, Fig. S7B, read-out: % cAMP activity (normalized to WT)
[6] = 1 h, ligand log([M]) -12, Fig. S7B, read-out: % cAMP activity (normalized to WT)
[7] = 1 h, ligand log([M]) -6, Fig. S7B, read-out: % cAMP activity (normalized to WT)
[8] = 1 h, TG6-129 log([M]) -8, read-out: % cAMP activity (normalized to WT)
[9] = 1 h, TG6-129 log([M]) -12, read-out: % cAMP activity (normalized to WT)

## CCc1nnc(NS(=O)(=O)c2ccc(NC(=S)NC(=O)/C=C/c3ccc(F)cc3)cc2)s1 [TG6-129]
[1]
  IC50: 219 nM
[1]; T82A, Mean
  TG6-129 cAMP activity (∆pIC50 from EP2 WT), Mean: -0.316
[1]; T82A, single experiments 1st-3rd
  TG6-129 cAMP activity (∆pIC50 from EP2 WT): -0.298 and -0.466 and -0.185
[2]
  IC50: 490 nM
[2]; 1 h, TG6-129 log([M]) -6, EP2-M116A, read-out: % cAMP activity (normalized to WT)
  remaining activity at 1 µM: 94.8%
[2]; M116A, Mean
  TG6-129 cAMP activity (∆pIC50 from EP2 WT), Mean: -0.618
[2]; M116A, single experiments 1st-3rd
  TG6-129 cAMP activity (∆pIC50 from EP2 WT): -0.597 and -0.614 and -0.642
[2]; no PGE2, pIC50 mutant - pIC50 WT, mean
  ΔpIC50: -0.62 ± 0.01
EP2-M116L; [3]
  remaining activity at 10 µM: 12.1%
EP2-M116L; [4]
  remaining activity at 0.0001 µM: 107%
EP2-M116L; [5]
  remaining activity at 10 pM: 124%
EP2-M116L; [6]
  remaining activity at 1 pM: 116%
EP2-M116L; Appendix Fig. S7A
  cAMP activity (∆pIC50 from EP2 WT): -0.454 and -0.463 and -0.341
EP2-L301I; [3]
  remaining activity at 10 µM: 16.7%
EP2-L301I; [7]
  remaining activity at 1 µM: 17.9%
EP2-L301I; 1 h, ligand log([M]) -7, Fig. S7B, read-out: % cAMP activity (normalized to WT)
  remaining activity at 0.1 µM: 74.8%
EP2-L301I; [4]
  remaining activity at 0.0001 µM: 111%
EP2-L301I; [5]
  remaining activity at 10 pM: 123%
EP2-L301I; [6]
  remaining activity at 1 pM: 120%
EP2-L301I; Appendix Fig. S7A
  cAMP activity (∆pIC50 from EP2 WT): -0.046 and -0.334 and -0.171
EP2-I85V; [7]
  remaining activity at 1 µM: 12.2%
EP2-I85V; [4]
  remaining activity at 0.0001 µM: 102%
EP2-I85V; [5]
  remaining activity at 10 pM: 108%
EP2-I85V; Appendix Fig. S7A
  cAMP activity (∆pIC50 from EP2 WT): -0.555 and -0.639 and -0.556
EP4 V320A
  IC50: 13500 nM
EP4 V320A; 1 h, TG6-129 log([M]) -4.70, read-out: % cAMP activity (normalized to WT)
  remaining activity at […]: 26.1%
EP4 V320A; 1 h, TG6-129 log([M]) -5.40, read-out: % cAMP activity (normalized to WT)
  remaining activity at […]: 66.6%
EP4 V320A; 1 h, TG6-129 log([M]) -6.10, read-out: % cAMP activity (normalized to WT)
  remaining activity at […]: 66.9%
EP4 V320A; 1 h, TG6-129 log([M]) -6.80, read-out: % cAMP activity (normalized to WT)
  remaining activity at 0.1585 µM: 68%
EP4 V320A; 1 h, TG6-129 log([M]) -7.49, read-out: % cAMP activity (normalized to WT)
  remaining activity at 0.03236 µM: 66.5%
EP4 V320A; 1 h, TG6-129 log([M]) -8.19, read-out: % cAMP activity (normalized to WT)
  remaining activity at 0.006457 µM: 70.4%
EP4 V320A; 1 h, TG6-129 log([M]) -8.89, read-out: % cAMP activity (normalized to WT)
  remaining activity at 0.001288 µM: 68.8%
EP4 V320A; PGE2 0.5 nM, pIC50 mutant - pIC50 WT, mean
  ΔpIC50: -0.11 ± 0.05
EP4 V320A; Mean
  cAMP activity (∆pIC50 from EP4 WT): -0.111
EP4 V320A; single experiments 1st-3rd
  cAMP activity (∆pIC50 from EP4 WT): -0.105 and -0.202 and -0.027
EP2 T82A
  IC50: 74.1 nM
EP2 T82A; [8]
  remaining activity at 0.01 µM: 28.8%
EP2 T82A; 1 h, TG6-129 log([M]) -9, read-out: % cAMP activity (normalized to WT)
  remaining activity at 0.001 µM: 38.9%
EP2 T82A; 1 h, TG6-129 log([M]) -11, read-out: % cAMP activity (normalized to WT)
  remaining activity at 10 pM: 40.1%
EP2 T82A; [9]
  remaining activity at 1 pM: 33.8%
EP2 T82A; Mean
  cAMP activity (∆pIC50 from EP2 WT): -0.177
EP2 T82A; single experiments 1st-3rd
  cAMP activity (∆pIC50 from EP2 WT): -0.228 and -0.186 and -0.118
EP2 S86A
  IC50: 339 nM
EP2 S86A; [8]
  remaining activity at 0.01 µM: 39.3%
EP2 S86A; 1 h, TG6-129 log([M]) -10, read-out: % cAMP activity (normalized to WT)
  remaining activity at 0.0001 µM: 51.4%
EP2 S86A; [9]
  remaining activity at 1 pM: 49.3%
EP2 S86A; TG6-129, S86A, Mean
  cAMP activity (∆pIC50 from EP2 WT): -0.714
